What was measured:
[1] = in vivo; cited from earlier work
[2] = tested on: geographic atrophy; settings: monthly intravitreal injections of 10 mg for 18 months, cited from earlier work
[3] = tested on: membrane attack complex (MAC, C5b-9); test: Immunohistochemistry of membrane attack complex, macaque study; type: in vivo, Macaca fascicularis; settings: eyes injected with L-4F vs eyes injected with the scrambled peptide; 6 monthly intravitreal injections
Experimental: (§1) The macaque study was conducted according to accepted guidelines.
(§2) Assays for immunohistochemistry of the membrane attack complex (MAC, C5b-9) and complement factor D (CFD) were performed identically except for employment of monoclonal antibodies specific for each complement component. Specimens were treated with 10 μg/mL protease K (Sigma-Aldrich Biochemie GmbH, Hamburg, Germany) in PBS for antigen retrieval for 30 min at RT. Subsequently the sections were blocked with a solution of goat serum (5% goat serum, 0.3% Triton X-100 in PBS) for 60 min at RT. The specimens were then reacted with a first antibody against either C5b-9 (diluted 1:30 in PBS, mouse monoclonal antibody, Dako Deutschland GmbH, Hamburg, Germany) or complement factor D (diluted 1:200 in PBS, mouse monoclonal antibody, Santa Cruz Biotechnology, Dallas, Tex., USA) overnight at 4° C. […] Fluorescence microscopy was conducted using an inverted fluorescence microscope (DMI 6000 from Leica Microsystems, Wetzlar, Germany) and a filter set for λex/λem=470 nm/525 nm. For the semiquantitative analysis of fluorescence intensity of C5b-9, 3-5 different regions in one slide were analyzed for 3 different slides from each eye (a total of 9-15 different regions from each eye). For the semiquantitative analysis of fluorescence intensity of complement factor D, 3 distinct regions for each eye were evaluated.

[4] = tested on: high-sensitivity C-reactive protein (hsCRP); settings: cynomolgus monkey, in vivo
Experimental: The macaque study was conducted according to accepted guidelines. […] One eye per animal received 6 monthly injections of the same escalating dosages of L-4F or scrambled L-4F (total of 625 μg) in a 50 μL volume. The second eye per animal was not injected and was just observed.
Clinical laboratory tests including serology, hemograms and liver enzymes were conducted, and ophthalmic examinations were also performed, including fundus photographs, optical coherence tomography (OCT), intraocular pressure testing and blood sampling. After 7 months, all animals were sacrificed and eyes were immediately prepared for histology.
Circulating hsCRP, which is mainly produced in the liver, is a non-specific marker for systemic inflammation.

[5] = tested on: neutral lipids in and on the Bruch's membrane; test: Oil red O (ORO) staining of neutral lipids in Bruch's membrane, macaque study; type: in vivo, Macaca fascicularis; settings: eyes injected with L-4F vs eyes injected with placebo (scrambled L-4F); 6 monthly intravitreal injections, total 625 μg; after 6 months
Experimental: as §1
For staining with oil red O (ORO), specimens were treated with a 0.3% oil red O (Sigma-Aldrich Biochemie GmbH, Hamburg, Germany) solution (in 99% isopropanol) for 30 min at room temperature (RT), followed by immersion in a 60% isopropanol solution for 12 min. After the specimens were washed with deionized water for 3 min, counter-staining was conducted with hematoxylin (Carl Roth GmbH, Karlsruhe, Germany). The specimens were then mounted with mounting solution (Aquatex from Merck Millipore, Darmstadt, Germany), covered with a glass cover slip (Menzel-Graeser GmbH), and examined using a fully automated inverted light microscope for life science (DMI 6000 from Leica Microsystems Wetzlar, Germany). Image analysis was performed by grading the intensity of ORO staining (red color) of the Bruch's membrane (BrM) with scores ranging from 0 to 4, according to a qualitative evaluation assessed in four different regions in two separate slices from each eye (a total of 8 different regions from each eye). Qualitative ORO staining scores at the BrM and the choroid: 0=no staining; 1=+; 2=++; 3=+++; 4=++++.

[6] = tested on: Bruch's membrane; test: Bruch's membrane thickness at the temporal outer macula by electron microscopy, macaque study; type: in vivo, Macaca fascicularis
Experimental: as §1
Lipid deposition in the Bruch's membrane contributes to thickening of the BrM. Bruch's membrane thickness was measured at the temporal outer macula of enucleated eyes examined by electron microscopy post-mortem.

[7] = tested on: esterified cholesterol in the Bruch's membrane; test: Filipin staining of esterified cholesterol in Bruch's membrane, macaque study; type: in vivo, Macaca fascicularis; settings: eyes injected with L-4F vs placebo-injected eyes; 6 monthly intravitreal injections
Experimental: as §1
For staining with filipin, specimens were washed once with deionized water for 5 min and then treated with 70% ethanol for 45 min. After being washed with deionized water for 5 min, the specimens were treated with cholesterol esterase (8.12 units/mL) diluted in 0.1 M potassium phosphate buffer (PPB, pH 7.4) for 3.5 hr at 37° C. The specimens were then washed sequentially with PPB and with phosphate buffered saline (PBS) twice for 3 min, followed by a wash with cold (4° C.) PBS overnight. Filipin staining was then performed with 250 μg/mL filipin (Sigma-Aldrich Biochemie GmbH, Hamburg, Germany), diluted in N,N-dimethylformamide (Merck Millipore, Darmstadt, Germany), for 60 min at RT with light shielding. The specimens were then washed sequentially with PBS and deionized water, mounted with a mounting solution (Mowiol®, Carl Roth GmbH, Karlsruhe, Germany), covered with a glass cover slip, and examined using an inverted fluorescence microscope (DMI 6000 from Leica Microsystems, Wetzlar, Germany). Filipin fluorescence was observed using a UV filter set (λex/λem=350 nm/455 nm). […] Semiquantitative analysis of fluorescence intensity of filipin at three separate regions of the BrM was done on three different slides from the same eye (a total of 9 different regions from each eye).

[8] = tested on: geriatric macaques with naturally occurring age-related maculopathy; test: Macaque study of age-related maculopathy: fellow-eye effects and tolerability; type: in vivo; settings: 6 monthly intravitreal injections, all macaques
Experimental: as §1

[9] = tested on: complement factor D (CFD); test: Immunohistochemistry of complement factor D, macaque study; type: in vivo, Macaca fascicularis; settings: eyes injected with L-4F vs eyes injected with the scrambled peptide; 6 monthly intravitreal injections
Experimental: as §1, §2

## ranibizumab: anti-VEGF antibody or fragment thereof
[1]
  intravitreal half-life: about 7.1 days

## aflibercept: soluble fusion protein containing one or more extracellular domains of one or more VEGFRs; anti-VEGF agent
[1]
  intravitreal half-life: about 9.0 days

## lampalizumab: antigen-binding fragment (Fab) of a humanized monoclonal antibody targeting complement factor D (CFD)
[2]; fundus autofluorescence, vs placebo
  reduction in the area of geographic atrophy in the injected eye: about 20%
[2]
  reduction in the area of geographic atrophy, subgroup positive for the CFI biomarker: about 44%

## Ac-DWFKAFYDKVAEKFKEAF-NH2 [L-4F, Ac-DWFKAFYDKVAEKFKEAF-NH2 acetate salt (SEQ. ID. NO. 13)]
[3]
  decreased level of MAC (C5b-9) in the BrM and the choriocapillaris (fluorescence intensity, semiquantitative): about 58%
[4]
  blood level of hsCRP: did not increase
[5]
  reduction of lipid deposits from the BrM (oil red O staining): about 56%
[6]; eyes injected with L-4F vs eyes injected with placebo
  reduction of BrM thickness: about 24%
[6]; injected eyes, electron microscopy post-mortem, mean ± SE
  BrM thickness at the temporal outer macula: 1.31 μm
[7]
  reduction of esterified cholesterol in the BrM (filipin fluorescence, semiquantitative): about 68%
[8]
  tolerability (significant adverse event or side effect): well tolerated
[9]
  decreased level of complement factor D (fluorescence intensity, semiquantitative): about 41%

## bevacizumab: anti-VEGF antibody or fragment thereof
[1]
  intravitreal half-life: about 9.8 days
